Data published in patent US20080207522A1, “Antimicrobial Peptides” (priority 2004, published 2008).
Ends that are not written are not given here.

Key:
Candida albicans = test system: Candida albicans
Protocol: (§1) Minimal inhibitory concentration (MIC) determination. The MICs of the peptides were measured using a modified broth microdilution method in Mueller Hinton (MH) medium. Wu et al., J. Biol. Chem. 274: 29-35, 1999. Briefly, the peptides were dissolved and stored in glass vials. The assay was performed in sterile 96-well polypropylene microtitre plates were used. Serial dilutions of the peptides to be assayed were performed in 0.01% acetic acid (Fisher) containing 0.2% bovine serum albumin (Boehringer Mannheim GmbH) at 10× the desired final concentration. Ten microlitres of the 10× peptides were added to each well of a 96-well polypropylene plate containing 90 μl of MH media per well. Bacteria were added to the plate from an overnight culture at 2-7×10^5 colony forming units/ml and incubated over night at 37° C. The MIC was taken as the concentration at which no growth was observed.
(§2) Strains. For the killing assay a mini-Tn5-lux mutant in Pseudomonas aeruginosa H103 was used. The strain is called H1001 and contains a fliC::luxCDABE transcriptional fusion resulting in constitutive expression of luciferase. The bacterial strains used for the antimicrobial activity assays included Escherichia coli UB1005 (F-, nalA37, metB1), a wild-type Salmonella enterica ssp. Typhimurium (S. Typhimurium), wild-type Pseudomonas aeruginosa PAO1 strain H103, Enterococcus faecalis ATCC29212, Staphylococcus aureus ATCC25923, and a clinical isolate of Staphylococcus epidermidis obtained from Dr. D. Speert (Department of Medicine, University of British Columbia). Antifungal activity was tested using a lab isolate of Candida albicans obtained from Dr. B. Dill (Department of Microbiology and Immunology, University of British Columbia).
(§3) In addition, the parent peptide Bac2A was included in these studies as a standard. The minimal inhibitory concentrations (MIC) were determined for the important medical pathogens Pseudomonas aeruginosa, Escherichia coli, Salmonella typhimurium, Staphylococcus aureus, Staphylococcus epidermidis, Enterococcus faecaelis, and the yeast Candida albicans in Mueller-Hinton media.

[1] = test system: Enterococcus faecalis ATCC29212; details: ATCC29212
Protocol: as §1, §2, §3

[2] = test system: Pseudomonas aeruginosa PAO1 strain H103; details: PAO1
Protocol: as §1, §2, §3

[3] = test system: Salmonella enterica ssp. Typhimurium; details: ssp. Typhimurium
Protocol: as §1, §2, §3

[4] = test system: Staphylococcus aureus ATCC25923; details: ATCC25923
Protocol: as §1, §2, §3

[5] = test system: Staphylococcus epidermidis
Protocol: as §1, §2, §3

[6] = test system: Pseudomonas aeruginosa strain H1001; assay: Assay for the cleaved (free, soluble) peptides from cellulose support, luminescence killing assay; type: cell-based; set-up: key: 1: Peptides showing stronger killing than Bac2A at a 4 to 8-fold higher dilution; Peptides showing stronger killing compared to that of Bac2A at a 4-fold higher dilution; 3: Peptides similar to Bac2A; 4: Peptides similar to Bac2A at the highest concentration but demonstrating weaker killing at a 2-fold dilution; 5: Peptides giving very weak or no killing at a 2-fold dilution; 6: Peptides with weak killing activity at the highest concentration; details: free (cleaved) peptides, killing relative to Bac2A
Outline: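 Cellulose-synthesized peptides (amidated C-terminus, two β-alanines) cleaved by ammonia, released from punched spots 30 min at 37 °C, then serially diluted. P. aeruginosa H1001 (constitutive fliC::luxCDABE) overnight culture diluted 1:500 in LB or 100 mM Tris pH 7.3/20 mM glucose. Killing followed as time-dependent luminescence loss at 37 °C.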

[7] = test system: Pseudomonas aeruginosa strain H1001 fliC::luxCDABE; assay: Luminescence-based assay for the non-cleaved (bound) peptides on cellulose membranes; type: cell-based; details: for Luminescence at the given time in minutes: 0 / Luminescence at the given time in minutes: 20 / Luminescence at the given time in minutes: 40 / Luminescence at the given time in minutes: 60 / Luminescence at the given time in minutes: 80 / Luminescence at the given time in minutes: 100 / Luminescence at the given time in minutes: 120 / Luminescence at the given time in minutes: 180 / Luminescence at the given time in minutes: 240: cellulose-bound peptide; for Luminescence at the given time in minutes: 0: 0 min; for Luminescence at the given time in minutes: 20: 20 min; for Luminescence at the given time in minutes: 40: 40 min; for Luminescence at the given time in minutes: 60: 60 min; for Luminescence at the given time in minutes: 80: 80 min; for Luminescence at the given time in minutes: 100: 100 min; for Luminescence at the given time in minutes: 120: 120 min; for Luminescence at the given time in minutes: 180: 180 min; for Luminescence at the given time in minutes: 240: 240 min; for Activity Class bound: uncleaved cellulose-bound peptides
Outline: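 Peptides remained bound to cellulose spots, which were ethanol-washed and equilibrated in 100 mM Tris pH 7.3. Constitutively lux-expressing P. aeruginosa (OD600 0.35 culture diluted 1:25) added in 10 mM Tris-HCl pH 7.3, 20 mM glucose at 37° C. Luminescence (RLU) followed over 14 time points; peptides binned into six activity classes.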

Substance	MIC C. albicans (Candida albicans) [µg/mL]	MIC E. faecalis [1] [µg/mL]	MIC P. aerug [2] [µg/mL]	MIC S. Typhim. [3] [µg/mL]	MIC S. aureus [4] [µg/mL]	MIC S. epi. [5] [µg/mL]	Activity Class Soluble [6]	Luminescence at the given time in minutes: 0 [7] [RLU]	Luminescence at the given time in minutes: 20 [7] [RLU]	Luminescence at the given time in minutes: 40 [7] [RLU]	Luminescence at the given time in minutes: 60 [7] [RLU]	Luminescence at the given time in minutes: 80 [7] [RLU]	Luminescence at the given time in minutes: 100 [7] [RLU]	Luminescence at the given time in minutes: 120 [7] [RLU]	Luminescence at the given time in minutes: 180 [7] [RLU]	Luminescence at the given time in minutes: 240 [7] [RLU]	Activity Class bound [7]	MIC P. aeruginosa [2] [µg/mL]
GLARIVVIRVAR-NH2 (C-terminus assumed) [Bac206]	125	31	125	63	63	16	–	–	–	–	–	–	–	–	–	–	–	–
KIWVIRWR-NH2 (C-terminus assumed) [Bac434]	16	16	16	31	16	4	–	–	–	–	–	–	–	–	–	–	–	–
LARIVVIRVAR-NH2 (C-terminus assumed) [Bac102]	83	46	83	>83	83	11	–	–	–	–	–	–	–	–	–	–	–	–
RGARIVVIRVAR-NH2 (C-terminus assumed) [Bac225]	16	31	31	31	31	16	–	–	–	–	–	–	–	–	–	–	–	–
RIWVIRWR-NH2 (C-terminus assumed) [Bac435]	16	8	16	16	4	4	–	–	–	–	–	–	–	–	–	–	–	–
RIWVIWRR-NH2 (C-terminus assumed) [Bac436]	8	2	8	8	2	2	–	–	–	–	–	–	–	–	–	–	–	–
RVLIVIRARRVA-NH2 (C-terminus assumed) [Bac043]	–	–	–	–	23	–	1	5254	6385	3722	1189	313	159	67	84	52	3 (Peptides similar to Bac2A resulting in lux values of less than 500 after 240 min.)	40
VRIRARRVILVA-NH2 (C-terminus assumed) [Bac006]	–	–	–	–	28	–	1	3878	6829	4619	2393	867	469	277	286	306	3 (Peptides similar to Bac2A resulting in lux values of less than 500 after 240 min.)	28
